Assay results: publication PMC10873021 (Biochemistry, 2023)

Assays:
PglJ Cc 33237 [1] = conditions: 20 μM Und-PP-diNAcBac-GalNAc; 0.1 nM enzyme; 5 mM MgCl2; 0.1% Triton X-100; 50 mM HEPES pH 7.5; 100 mM NaCl
PglJ Cc 13826 [2] = conditions: 20 μM Und-PP-diNAcBac-GalNAc; 0.1 nM enzyme; 5 mM MgCl2; 0.1% Triton X-100; 50 mM HEPES pH 7.5; 100 mM NaCl
PglJ Cj 11168 = PglJ Cj 11168 (Campylobacter jejuni, UniProt Q0P9C7); assay: UDP-Glo glycosyltransferase assay, UDP-sugar screen; type: biochemical; conditions: 10 nM enzyme; 25 μM UDP-sugar; 20 μM Und-PP-diNAcBac-GalNAc; 5 mM MgCl2; pH 7.5
PglJ Cc 33237 [3] = conditions: 25 μM UDP-sugar; 20 μM Und-PP-diNAcBac-GalNAc; 5 mM MgCl2; pH 7.5; varying enzyme
PglJ Cc 13826 [4] = conditions: 1 mM ligand; 10 mM HEPES pH 7.5; 150 mM NaCl; 5% glycerol; 2 mM DTT; 0.03% DDM
PglJ Cc 33237 [5] = conditions: 1 mM ligand; 10 mM HEPES pH 7.5; 150 mM NaCl; 5% glycerol; 2 mM DTT; 0.03% DDM

Row | Compound | dTm (PglJ Cc 13826 [4]) | dTm (PglJ Cc 33237 [5]) | also measured
1 | CC(=O)N[C@H]1[C@@H](OP(=O)(O)OP(=O)(O)OC[C@H]2O[C@@H](n3ccc(=O)[nH]c3=O)[C@H](O)[C@@H]2O)O[C@H](C(=O)O)[C@H](O)[C@@H]1O [UDP-GalNAcA] |  |  | Km (PglJ Cc 33237 [1]): 7.4 ± 2.5 µM; Km (PglJ Cc 13826 [2]): 3.8 ± 1.9 µM
2 | CC(=O)N[C@H]1[C@@H](OP(=O)(O)OP(=O)(O)OC[C@H]2O[C@@H](n3ccc(=O)[nH]c3=O)[C@H](O)[C@@H]2O)O[C@H](CO)[C@H](O)[C@@H]1O [UDP-GalNAc] |  |  | UDP-Glo glycosyltransferase assay, UDP-sugar screen (PglJ Cj 11168): At the same concentration, the PglJ from C. jejuni preferred UDP-GalNAc; UDP-Glo glycosyltransferase assay, UDP-sugar screen (PglJ Cc 33237 [3]): this variant now transfers GalNAc from UDP-GalNAc onto the growing Und-PP-glycan
3 | CC(=O)N[C@H]1[C@@H](OP(=O)(O)OP(=O)(O)OC[C@H]2O[C@@H](n3ccc(=O)[nH]c3=O)[C@H](O)[C@@H]2O)O[C@H](C(=O)O)[C@@H](O)[C@@H]1O [UDP-GlcNAcA] | (UDP-GalNAcA and UDP-GlcNAcA) stabilized the PglJ enzymes from both strains of C. concisus studied | (UDP-GalNAcA and UDP-GlcNAcA) stabilized the PglJ enzymes from both strains of C. concisus studied | 
4 | O=c1ccn([C@@H]2O[C@H](COP(=O)(O)OP(=O)(O)O)[C@@H](O)[C@H]2O)c(=O)[nH]1 [UDP] | Significant stabilization was observed with UDP, the nucleotide product of the glycosyltransferase reaction | Significant stabilization was observed with UDP, the nucleotide product of the glycosyltransferase reaction | 
